This is an account of results in patent US8178727B2, “Bis(arylmethylidene)acetone compound, anti-cancer agent, carcinogenesis-preventive agent, inhibitor of expression of Ki-Ras, ErbB2, c-Myc and Cycline D1, β-catenin-degrading agent, and p53 expression enhancer” (National University Corporation Tohoku University, priority 2005, dated 2012).

As a reminder, the melting point is the temperature, or range, at which the solid turns liquid. Consider `O=C(/C=C/c1cc(O)cc(O)c1)/C=C/c1cc(O)cc(O)c1` (hydrate or solvate) [GO-Y038, (1E,4E)-1,5-bis-(3,5-dihydroxyphenyl)penta-1,4-dien-3-one], for which the melting point was 298 to 300 °C (dec.).
The figure for `COc1cc(Br)cc(/C=C/C(=O)/C=C/c2cc(Br)cc(OC)c2)c1` [GO-033, (1E,4E)-1,5-bis-(3-bromo-5-methoxyphenyl)penta-1,4-dien-3-one] is 181 to 183 °C; for `O=C(/C=C/c1ccc2ccccc2c1)/C=C/c1ccc2ccccc2c1` [GO-Y011, (1E,4E)-1,5-dinaphthalen-2-yl-penta-1,4-dien-3-one] it is 244 to 246 °C.
As for `COc1ccc(/C=C/C(=O)/C=C/c2ccc(OC)c(O)c2)cc1O` [GO-Y023, (1E,4E)-1,5-bis-(3-hydroxy-4-methoxyphenyl)penta-1,4-dien-3-one], the figure is 195 to 197 °C.
As for `COc1cc(/C=C/C(=O)/C=C/c2cc(OC)c(O)c(OC)c2)cc(OC)c1O` [GO-Y026, (1E,4E)-1,5-bis-(4-hydroxy-3,5-dimethoxyphenyl)penta-1,4-dien-3-one], the figure is 166 to 168 °C; as for `COCCOCOc1c(OC)cc(/C=C/C(=O)/C=C/c2cc(OC)c(OCOCCOC)c(OC)c2)cc1OC` [GO-Y039, (1E,4E)-1,5-bis-(3,5-dimethoxy-4-methoxyethoxymethoxyphenyl)penta-1,4-dien-3-one], 61 to 63 °C.
In the case of `COc1cc(/C=C/C(=O)/C=C/c2cc(OC)c(OCCO)c(OC)c2)cc(OC)c1OCCO` [GO-Y044, (1E,4E)-1,5-bis-[4-(2-hydroxyethoxy)-3,5-dimethoxyphenyl]penta-1,4-dien-3-one], the melting point lay within 133 to 135 °C.
Take `C#CCOc1c(OC)cc(/C=C/C(=O)/C=C/c2cc(OC)c(OCC#C)c(OC)c2)cc1OC` [GO-Y048, (1E,4E)-1,5-bis-(3,5-dimethoxy-4-prop-2-ynyloxyphenyl)penta-1,4-dien-3-one]: the melting point was in the range of 162 to 164 °C.
As for `C#CCOc1c(OC)cc(/C=C/C(=O)/C=C/c2cc(OC)c(OC)c(OC)c2)cc1OC` [GO-Y060, (1E,4E)-1-(3,5-dimethoxy-4-prop-2-ynyloxyphenyl)-5-(3,4,5-trimethoxyphenyl)penta-1,4-dien-3-one], the figure is 118 to 120 °C; as for `COc1cc(/C=C/C(=O)/C=C/c2cc(OC)c(OCCN=[N+]=[N-])c(OC)c2)cc(OC)c1OCCN=[N+]=[N-]` [GO-Y065, (1E,4E)-1,5-bis-[4-(2-azidoethoxy)-3,5-dimethoxyphenyl]penta-1,4-dien-3-one], 107 to 109 °C.
